Values joined by “and” are separate entries in the source; they are usually repeats but may differ in a detail not shown here. Identical values can stand only once. Toxic doses and inconclusive results are not listed. How the source made its calls: active means survival T/C of 150% or more; inactive means T/C below 125% in these data. Numbered stars: 1 amine (or outer) side, 2 acyl side, 3 side chain; on linkers, the order of the positions; unused ones are H or OH. Peptide text beside a SMILES is read from it. CO = O=C([*:1])[*:2]
Tested on: P388 leukemia ip, CD2F1 mice, survival T/C
Test: NCI In Vivo Anticancer Drug Screen. Data for tumor model P388 Leukemia (intraperitoneal) in CD2F1 (CDF1) mice
Details: endpoint: median survival time, higher = longer survival
Outline: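 Mice carrying the transplanted tumor received test compound or vehicle. Survival was recorded in each group, and the value is the treated-group measurement divided by that of the vehicle-treated control group.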

[1] = dose: 25.0 mg/kg/injection, schedule: Q04DX002 (ip), vehicle: saline with Tween-80
[2] = dose: 50.0 mg/kg/injection, schedule: Q04DX002 (ip), vehicle: saline with Tween-80
[3] = dose: 50.0 mg/kg/injection, schedule: Q01DX009 (ip), vehicle: saline with Tween-80
[4] = dose: 100.0 mg/kg/injection, schedule: Q01DX009 (ip), vehicle: saline with Tween-80
[5] = dose: 200.0 mg/kg/injection, schedule: Q01DX009 (ip), vehicle: saline with Tween-80
[6] = dose: 25.0 mg/kg/injection, schedule: Q01DX005 (ip), vehicle: Klucel (hydroxypropylcellulose) (HPC)
[7] = dose: 50.0 mg/kg/injection, schedule: Q01DX005 (ip), vehicle: Klucel (hydroxypropylcellulose) (HPC)
[8] = dose: 100.0 mg/kg/injection, schedule: Q01DX005 (ip), vehicle: Klucel (hydroxypropylcellulose) (HPC)
[9] = dose: 200.0 mg/kg/injection, schedule: Q01DX005 (ip), vehicle: Klucel (hydroxypropylcellulose) (HPC)
[10] = dose: 50.0 mg/kg/injection, schedule: Q01DX005 (ip), vehicle: saline with Tween-80
[11] = dose: 100.0 mg/kg/injection, schedule: Q01DX005 (ip), vehicle: saline with Tween-80

Measured: T/C

CCCn1c2ccccc2c2c(C)c3cnccc3c(C)c21
inactive: dose: 12.5 mg/kg/injection, schedule: Q04DX002 (ip), vehicle: saline with Tween-80 100 % of control | [1] 97 % of control | [2] 94 % of control | dose: 100.0 mg/kg/injection, schedule: Q04DX002 (ip), vehicle: saline with Tween-80 105 % of control

O=[N+]([O-])c1ccc(/C=N/N2CCNC2=S)o1
inactive: dose: 25.0 mg/kg/injection, schedule: Q01DX009 (ip), vehicle: Klucel (hydroxypropylcellulose) (HPC) 100 % of control | dose: 50.0 mg/kg/injection, schedule: Q01DX009 (ip), vehicle: Klucel (hydroxypropylcellulose) (HPC) 101 % of control | dose: 100.0 mg/kg/injection, schedule: Q01DX009 (ip), vehicle: Klucel (hydroxypropylcellulose) (HPC) 100 % of control | dose: 200.0 mg/kg/injection, schedule: Q01DX009 (ip), vehicle: Klucel (hydroxypropylcellulose) (HPC) 100 % of control

N#Cn1c2ccccc2c(=N)c2ccccc21
inactive: dose: 60.0 mg/kg/injection, schedule: Q01DX005 (ip), vehicle: saline with Tween-80 103 % of control | dose: 120.0 mg/kg/injection, schedule: Q01DX005 (ip), vehicle: saline with Tween-80 102 % of control

C=C(CN(C)C)C(=O)c1ccc(Oc2ccccc2)cc1
inactive: dose: 0.93 mg/kg/injection, schedule: Q01DX005 (ip), vehicle: saline 104 % of control | dose: 1.87 mg/kg/injection, schedule: Q01DX005 (ip), vehicle: saline 100 % of control | dose: 3.75 mg/kg/injection, schedule: Q01DX005 (ip), vehicle: saline 100 % of control

O=C1CSC(=S)N1c1ccc(F)cc1F
inactive: dose: 50.0 mg/kg/injection, schedule: Q01DX009 (ip), vehicle: suspension in saline 97 % of control | dose: 100.0 mg/kg/injection, schedule: Q01DX009 (ip), vehicle: suspension in saline 100 % of control | dose: 200.0 mg/kg/injection, schedule: Q01DX009 (ip), vehicle: suspension in saline 100 % of control

Cc1c2c(C(N)=O)nccc2c(C)c2c1c1ccccc1n2Cc1ccccc1
inactive: dose: 1.56 mg/kg/injection, schedule: Q04DX003 (ip), vehicle: distilled water + Tween-80 89 % of control | dose: 3.13 mg/kg/injection, schedule: Q04DX003 (ip), vehicle: distilled water + Tween-80 89 % of control | dose: 12.5 mg/kg/injection, schedule: Q04DX003 (ip), vehicle: distilled water + Tween-80 86 % of control | dose: 25.0 mg/kg/injection, schedule: Q04DX003 (ip), vehicle: distilled water + Tween-80 87 % of control | dose: 50.0 mg/kg/injection, schedule: Q04DX003 (ip), vehicle: distilled water + Tween-80 100 % of control | dose: 100.0 mg/kg/injection, schedule: Q04DX003 (ip), vehicle: distilled water + Tween-80 95 % of control | dose: 200.0 mg/kg/injection, schedule: Q04DX003 (ip), vehicle: distilled water + Tween-80 101 % of control

COc1ccc2c(c1OC(C)=O)-c1cc(OC(C)=O)cc3c1C(C2)N(C(=O)CBr)CC3 (stereo not given)
inactive: dose: 6.25 mg/kg/injection, schedule: Q01DX009 (ip), vehicle: saline with Tween-80 104 % of control | dose: 12.5 mg/kg/injection, schedule: Q01DX009 (ip), vehicle: saline with Tween-80 104 % of control

CC(CC(=O)c1ccccc1)=NCCCN=C(C)CC(=O)c1ccccc1
inactive: [3] 112 % of control | [4] 96 % of control | [5] 96 % of control

O=c1ccn(C2OC(COC(c3ccccc3)(c3ccccc3)c3ccccc3)C(O)C2OC(c2ccccc2)(c2ccccc2)c2ccccc2)c(=O)[nH]1 (stereo not given)
inactive: [6] 97 % of control | [7] 99 % of control | [8] 94 % of control | [9] 93 % of control

CCCCCCCC1C(=O)OC2CC3C(C)=CC(=O)C(O)C3(C)C3C4(O)OCC23C1C(C)C4O (stereo not given)
inactive: dose: 1.25 mg/kg/injection, schedule: Q01DX005 (ip), vehicle: Klucel (hydroxypropylcellulose) (HPC) 107 % of control | dose: 2.5 mg/kg/injection, schedule: Q01DX005 (ip), vehicle: Klucel (hydroxypropylcellulose) (HPC) 108 % of control | dose: 5.0 mg/kg/injection, schedule: Q01DX005 (ip), vehicle: Klucel (hydroxypropylcellulose) (HPC) 107 % of control and 116 % of control | dose: 10.0 mg/kg/injection, schedule: Q01DX005 (ip), vehicle: Klucel (hydroxypropylcellulose) (HPC) 117 % of control and 124 % of control

Cc1ccc(C2(c3ccc(C)cc3)CCCCCC2=O)cc1
inactive: [6] 87 % of control | [7] 90 % of control | [8] 97 % of control

CC(=O)c1nc2c(N)nc(N)nc2nc1C
inactive: dose: 25.0 mg/kg/injection, schedule: Q04DX003 (ip), vehicle: saline with Tween-80 96 % of control | dose: 50.0 mg/kg/injection, schedule: Q04DX003 (ip), vehicle: saline with Tween-80 96 % of control | dose: 100.0 mg/kg/injection, schedule: Q04DX003 (ip), vehicle: saline with Tween-80 96 % of control

Nc1ccc2c(C(F)(F)F)cc(=O)oc2c1
inactive: [10] 106 % of control | [11] 99 % of control | dose: 200.0 mg/kg/injection, schedule: Q01DX005 (ip), vehicle: saline with Tween-80 94 % of control

CCCCCCCCCC[N+](C)(C)CCCO
inactive: dose: 12.5 mg/kg/injection, schedule: Q01DX009 (ip), vehicle: saline 96 % of control | dose: 25.0 mg/kg/injection, schedule: Q01DX009 (ip), vehicle: saline 112 % of control | dose: 50.0 mg/kg/injection, schedule: Q01DX009 (ip), vehicle: saline 118 % of control

O=[Te]=O
inactive: dose: 3.12 mg/kg/injection, schedule: Q01DX005 (ip), vehicle: saline 103 % of control | dose: 6.25 mg/kg/injection, schedule: Q01DX005 (ip), vehicle: saline 110 % of control | dose: 12.5 mg/kg/injection, schedule: Q01DX005 (ip), vehicle: saline 105 % of control and 116 % of control

Clc1ccc(C(CCc2ccc(Br)cc2)Cn2ccnc2)c(Cl)c1 (stereo not given)
inactive: dose: 25.0 mg/kg/injection, schedule: Q01DX009 (ip), vehicle: saline with Tween-80 88 % of control | [3] 87 % of control

CCCC1CCCCN1Cc1ccccc1 (stereo not given)
inactive: [10] 107 % of control | [11] 104 % of control

CN(C)CCn1c2nc(=O)[nH]c(=O)c-2nc2ccccc21
inactive: dose: 6.25 mg/kg/injection, schedule: Q01DX005 (ip), vehicle: Klucel (hydroxypropylcellulose) (HPC) 93 % of control | dose: 12.5 mg/kg/injection, schedule: Q01DX005 (ip), vehicle: Klucel (hydroxypropylcellulose) (HPC) 100 % of control | [6] 101 % of control | [7] 98 % of control

CCOC(=O)C(CCC[n+]1ccc2ccccc2c1)C(=O)OCC
inactive: [7] 96 % of control | [8] 98 % of control | [9] 98 % of control

CC(C)C(NC(=O)C(CCCN=C(N)N)NC(=O)NC(Cc1ccccc1)C(=O)O)C(=O)NC(C=O)Cc1ccccc1 (stereo not drawn) ({Phe-CO}-Arg-Val-Phe-aldehyde; configuration not given here)
inactive: dose: 8.25 mg/kg/injection, schedule: Q01DX005 (ip), vehicle: Klucel (hydroxypropylcellulose) (HPC) 95 % of control | dose: 8.75 mg/kg/injection, schedule: Q01DX005 (ip), vehicle: Klucel (hydroxypropylcellulose) (HPC) 99 % of control | dose: 16.5 mg/kg/injection, schedule: Q01DX005 (ip), vehicle: Klucel (hydroxypropylcellulose) (HPC) 92 % of control | dose: 17.5 mg/kg/injection, schedule: Q01DX005 (ip), vehicle: Klucel (hydroxypropylcellulose) (HPC) 99 % of control | dose: 33.0 mg/kg/injection, schedule: Q01DX005 (ip), vehicle: Klucel (hydroxypropylcellulose) (HPC) 93 % of control | dose: 35.0 mg/kg/injection, schedule: Q01DX005 (ip), vehicle: Klucel (hydroxypropylcellulose) (HPC) 93 % of control | dose: 66.0 mg/kg/injection, schedule: Q01DX005 (ip), vehicle: Klucel (hydroxypropylcellulose) (HPC) 92 % of control | dose: 70.0 mg/kg/injection, schedule: Q01DX005 (ip), vehicle: Klucel (hydroxypropylcellulose) (HPC) 87 % of control

Oc1ccc(N=Nc2nccs2)c(O)c1
inactive: [3] 96 % of control | [4] 93 % of control | [5] 99 % of control

COc1cc(C2(C3C(CO)OC(=O)C3Cc3ccc4c(c3)OCO4)SCCCS2)cc(OC)c1OC (stereo not given)
inactive: [1] 100 % of control | [2] 87 % of control

Reference: PubChem BioAssay AID330 (DTP/NCI, 2004)
